Laboratory results: patent US20260027380A1, “TECHNIQUES FOR MAGNETIC NANOCLUSTER-BASED COMBINATION THERAPY” (William Marsh Rice University, priority 2022, published 2026)

How the values were obtained:
Settings in all cases: without AMF
MC-38 cells [1] = test: Mitochondrial membrane potential (JC-1 staining); assay type: cell-based, murine
Text: JC-1 dye was used to examine the effect of heat and free radical generation by IONC-AAPH on mitochondria. JC-1 dye is an indicator of mitochondrial membrane potential (MMP). In healthy cells with high MMP, JC-1 accumulates in the mitochondria and forms J-aggregates, which emit red fluorescence. In contrast, apoptotic cells with low MMP, JC-1 diffuses in the cytoplasm and remains as J-monomers, which give green fluorescence. A decrease in J-aggregates to J-monomers ratio indicates MMP loss (i.e., mitochondrial depolarizations). […] The J-aggregates to J-monomers ratios quantified using flow cytometry confirmed the significant MMP loss due to heat and free radicals, as illustrated in FIGS. 9 (depicting results of flow cytometry analysis of mitochondrial membrane potential of MC-38 cells 4 h after treatment by JC-1 staining) and 10 (depicting quantification of the J-aggregate to J-monomer ratio using the mean fluorescence detected by flow cytometry in FIG. 9).
Determination of mitochondrial health: The mitochondrial membrane potential of MC-38 cells was determined with JC-1 staining assay. […] After staining, the cells were imaged with a confocal microscope (Nikon A1-Rsi confocal) or analyzed on a flow cytometer (BD Accuri C6 Plus). The ratio of J-aggregates to J-monomers was calculated using the red and green fluorescence intensity measured by flow cytometry.

MC-38 cells [2] = test: Lipid peroxidation (MDA level); assay type: cell-based, murine
Protocol: Further, the effect of IONC-AAPH induced heat and free radicals on lipids was quantified by measuring the level of malondialdehyde (MDA). Malondialdehyde (MDA) is one of the final products of lipid peroxidation. MDA is a widely used biomarker of oxidative stress. Accordingly, the extent of lipid peroxidation after IONC-AAPH treatment was measured via MDA levels. FIG. 12 illustrates a quantification of MDA levels in MC-38 cells 2 hours after treatment. It was observed that the MC-38 cells treated with free AAPH, IONC, and IONC-AAPH, respectively, without AMF, as well as cells treated with IONC under AMF had some increase in MDA levels compared with that of control cells, as shown in FIG. 12. The low levels of lipid peroxidation in these groups may have resulted from the free radicals generated from the slow decomposition of AAPH at 37° C., or the IONC induced fenton/fenton-like reaction, or their combination (IONC-AAPH without AMF).
Determination of lipid peroxidation: The lipid peroxidation of MC-38 cells was determined by measuring the production of malondialdehyde (MDA). MC-38 cells cultured in 4-compartment cell culture dishes were treated with 300 μg Fe/mL of IONC-AAPH or IONC at 37° C. or under AMF for 2 h. Two hours post the treatment, the cells were lysed, and the MDA levels were quantified using a fluorescence-based MDA Assay Kit following the manufacturer's instructions.

[3] = test system: bone marrow-derived dendritic cells (BMDCs); test: Dendritic cell maturation, coculture with treated MC-38 cells; assay type: cell-based, C57BL/6N mice
Protocol: Dendritic cells (DCs) are a key type of antigen-presenting cells that play critical roles in initiating and regulating antitumor immune response. To determine if the immunogenic cell death induced by magnetotherapy can activate dendritic cells, bone marrow-derived dendritic cells (BMDCs) were cocultured with IONC-AAPH-treated MC-38 cells, together with the medium containing DAMPs, in a transwell system for 24 h. The maturation of dendritic cells was estimated as the percentage of CD80+CD86+ cells in CD11c+ cells. […] The percentage of mature DCs in IONC and IONC-AAPH groups was 2.1-fold of the blank.
Determination of Dendritic Cell Maturation: The bone marrow-derived dendritic cells (BMDCs) were prepared from the bone marrow of 8-week old C57BL/6N mice according to an established protocol. To determine the stimulatory effect on BMDCs, IONC-AAPH-treated MC-38 cells (together with the medium containing DAMPs) were cocultured with BMDCs for 24 h in a transwell system (pore size=3 μm). BMDCs only (without coculture) were included as the blank groups. The BMDCs were collected, blocked with CD16/CD32 antibody, and stained with PECD11c, FITC-CD80, and APC-CD86. The data were acquired on MA900 Multi-Application Cell Sorter (Sony) and analyzed using FlowJo software (Tree Star).

**Q.** With CC(C)(N=NC(C)(C)C(=N)N)C(=N)N.Cl.Cl [AAPH, 2,2′-azobis(2-amidinopropane) dihydrochloride] as the compound, how does the “JC-1 state (mitochondrial membrane potential)” value (MC-38 cells [1]) read?
**A.** Its value is “J-aggregates were formed”.

**Q.** What about the “MDA level vs control cells” value (MC-38 cells [2]) of the same compound?
**A.** The value was “some increase”.

**Q.** What about the “effect on DC maturation” value [3] of the same compound?
**A.** The value was “did not show a noticeable effect”.
